A word on the Cmax: it is the maximum level reached in the sampled fluid or tissue. A word on the AUC(0-t): it is the area under the concentration-time curve up to a stated or last time point. A low value points to less exposure. By bioavailability is commonly meant the share of a dose that reaches the circulation, judged against a reference dose that is usually intravenous. A high value points to good availability.

Molecules are shown by their SMILES. Values after ≈ are worked out from the molar mass of the structure shown.

Data set [1] in a line: Thermodynamic equilibrium aqueous solubility in pH 1 solution at 1 mg/ml after 15 to 24 hrs by UV-HPLC method. Type of data set: physicochemical. Conditions: aqueous pH 1 solution, read-out: Therm_solubility.
Data set [2] is described as follows: Thermodynamic equilibrium aqueous solubility in pH 6.5 solution at 1 mg/ml after 15 to 24 hrs by UV-HPLC method. It is filed as physicochemical. As to conditions: for solubility thermodynamic: aqueous pH 6.5 solution, read-out: Therm_solubility.
Data set [3] concerns Rattus norvegicus. The experiment in a line: (§1) AUC (0 to 24 hrs) in Sprague-Dawley rat at 10 mg/kg, po by LC-MS/MS analysis. It is filed as ADME, organism-based. More on the design: dose 10 mg/kg, time < 24 hr, route oral. Conditions: in vivo, 24 h, BLD = below limit of detection.
Data set [4] relates to Rattus norvegicus. The experiment in a line: (§2) Cmax in Sprague-Dawley rat at 10 mg/kg, po by LC-MS/MS analysis. Type of data set: ADME, organism-based. More on the design: dose 10 mg/kg, route oral. As to conditions: in vivo, BLD = below limit of detection.
For a further data set, the system named is Plasma. The experiment in a line: Prodrug activation in Sprague-Dawley rat assessed as BMS-665053 level in plasma at 10 mg/kg, po by LC-MS/MS analysis. It is filed as organism-based. Conditions: in vivo.
Data set [5] in a line: as §1. It is filed as ADME, organism-based. More on the design: dose 10 mg/kg, time < 24 hr, route oral. Conditions: Sprague-Dawley, in vivo.
The nature of data set [6]: as §2. It is filed as ADME, organism-based. More on the design: dose 10 mg/kg, route oral. Conditions: Sprague-Dawley, in vivo.
Data set [7] is described as follows: Oral bioavailability in Sprague-Dawley rat at 10 mg/kg by LC-MS/MS analysis. It is filed as ADME, organism-based. Conditions: in vivo.
For data set [8], the target named is T1, Alkaline phosphatase, tissue-nonspecific isozyme (Homo sapiens, UniProt P05186).
T1 sequence (P05186 whole entry): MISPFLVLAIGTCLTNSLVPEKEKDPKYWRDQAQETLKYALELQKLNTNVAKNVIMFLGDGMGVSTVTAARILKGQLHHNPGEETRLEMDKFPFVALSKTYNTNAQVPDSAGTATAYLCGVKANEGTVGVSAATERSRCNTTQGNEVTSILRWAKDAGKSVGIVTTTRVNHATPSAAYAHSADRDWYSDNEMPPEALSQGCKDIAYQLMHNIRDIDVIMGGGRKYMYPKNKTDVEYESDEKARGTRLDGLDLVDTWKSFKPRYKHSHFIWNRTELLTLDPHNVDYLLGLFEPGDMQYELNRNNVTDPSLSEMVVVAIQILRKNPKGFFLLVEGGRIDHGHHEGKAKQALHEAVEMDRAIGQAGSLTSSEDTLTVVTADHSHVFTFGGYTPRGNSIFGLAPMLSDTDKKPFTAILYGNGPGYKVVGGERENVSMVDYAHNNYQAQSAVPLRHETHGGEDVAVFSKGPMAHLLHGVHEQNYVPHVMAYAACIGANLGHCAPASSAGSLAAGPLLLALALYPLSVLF
Put plainly: Drug metabolism treated with 3-(Phosphonooxy)propyl (S)-(6-chloro-4-(1-cyclopropylethyl)-3-oxo-3,4-dihydropyrazin-2-yl)(2,6-dichloro-4-(difluoromethoxy)phenyl)carbamate, disodium salt assessed as alkaline phosphatase (unknown origin)-mediated compound conversion after 120 mins by LC-MS analysis. It is filed as ADME. Conditions: 2 h.

Data set [9] has as its target T1, Alkaline phosphatase, tissue-nonspecific isozyme. Put plainly: Drug metabolism treated with 2,2-Dimethyl-3-(phosphonooxy)propyl (S)-(6-chloro-4-(1-cyclopropylethyl)-3-oxo-3,4-dihydropyrazin-2-yl)(2,6-dichloro-4-(difluoromethoxy)phenyl)carbamate, disodium salt assessed as alkaline phosphatase (unknown origin)-mediated compound conversion after 120 mins by LC-MS analysis. It is filed as ADME. As to conditions: 2 h.

A short description of data set [10]: Stability in pH 1 buffer by HPLC method. Type of data set: physicochemical.
Data set [11] in a line: Prodrug activation in pH 7 buffer assessed as BMS-665053 formation after 10 mins by HPLC method.
Data set [12] can be described thus: Stability in pH 1 buffer after 8 hrs by HPLC method. As to conditions: pH 1, 8 h. It is filed as physicochemical.
Data set [13] is described as follows: Stability in pH 7 buffer after 8 hrs by HPLC method. It is filed as physicochemical. Conditions: pH 7, 8 h.

Regarding `C[C@@H](C1CC1)n1cc(Cl)nc(N(C(=O)OCC(C)(C)COP(=O)([O-])[O-])c2c(Cl)cc(OC(F)F)cc2Cl)c1=O.[Na+].[Na+]`, the solubility thermodynamic is 50 µg/mL in data set [1] and greater than 1500 µg/mL in data set [2]. In addition, the AUC entry in the data set with Rattus norvegicus [3] is “Bld”. Further, the Cmax result in the data set with Rattus norvegicus [4] is listed as “Bld”. In addition, in the data set with Plasma, the Drug metabolism entry is “Metabolite_Notdetected”.
On to `C[C@@H](C1CC1)n1cc(Cl)nc(Nc2c(Cl)cc(OC(F)F)cc2Cl)c1=O`, for which the figures for the solubility thermodynamic in data set [1] and in data set [2] were 7 µg/mL (≈ 16.5 µM) and less than 1 µg/mL, respectively. The molecule further yielded an AUC(0-t) at 24 h in data set [5] of 1.26 µM·h.
`C[C@H](N)C(=O)OCOC(=O)N(c1c(Cl)cc(OC(F)F)cc1Cl)c1nc(Cl)cn([C@@H](C)C2CC2)c1=O.Cl`: the solubility thermodynamic in [1] came to 370 µg/mL; in data set [2] it was 5 µg/mL. In data set [5], this molecule displayed an area under the curve AUC(0-t) at 24 h of 8.25 µM·h. The molecule also returned a maximum concentration (Cmax) in data set [6] of 730 nM. For the same molecule, the bioavailability in data set [7] amounted to 36%.
As to `C[C@@H](C1CC1)n1cc(Cl)nc(N(C(=O)OCCCO)c2c(Cl)cc(OC(F)F)cc2Cl)c1=O`, the Drug metabolism entry in data set [8] and in data set [9] was “Metabolite_Detected” each time.
`C[C@@H](C1CC1)n1cc(Cl)nc(N(C(=O)OCOC(=O)CCN)c2c(Cl)cc(OC(F)F)cc2Cl)c1=O.Cl`: the solubility thermodynamic in [1] was 1350 µg/mL; in [2] it was 30 µg/mL. The same molecule returned an exposure AUC(0-t) at 24 h in data set [5] of 6.32 µM·h. Also, the maximum concentration (Cmax) in data set [6] was found to be 490 nM. In [7], this molecule came in with a bioavailability of 27%.
For the molecule `C[C@@H](C1CC1)n1cc(Cl)nc(N(C(=O)OCOC(=O)CN(C)C)c2c(Cl)cc(OC(F)F)cc2Cl)c1=O`, the solubility thermodynamic in data set [1] is 1720 µg/mL (≈ 2950 µM); in [2] it was 530 µg/mL (≈ 908 µM). In the data set on Rattus norvegicus [3], the AUC entry was “Bld”. Moreover, the Cmax result in the data set with Rattus norvegicus [4] was “Bld”. In addition, the Drug metabolism result in the data set with Plasma is listed as “Metabolite_Notdetected”.
Regarding `C[C@@H](C1CC1)n1cc(Cl)nc(N(C(=O)OCOP(=O)(O)O)c2c(Cl)cc(OC(F)F)cc2Cl)c1=O`, in data set [1], the solubility thermodynamic worked out at 338 µg/mL (≈ 584 µM). Besides, in data set [2] (buffer), the Therm_solubility entry is on record as “Nd(Unstable)”. The molecule also displayed an area under the curve AUC(0-t) at 24 h in data set [5] of 3.99 µM·h. Moreover, the highest level in [6] (Cmax) was 460 nM. Further, the bioavailability in data set [7] turned out to be 17%. The Drug metabolism is 23 %ID in the data set on Plasma and “Metabolite detected” in data set [11]. Besides, the Stability entry in [10] is “Stable”.
Consider `CC(C)[C@H](N)C(=O)OCOC(=O)N(c1c(Cl)cc(OC(F)F)cc1Cl)c1nc(Cl)cn([C@@H](C)C2CC2)c1=O.Cl`, for which the solubility thermodynamic in data set [1] was determined as 1820 µg/mL; in data set [2], 10 µg/mL. Also, the AUC(0-t) at 24 h in [5] amounted to 7.37 µM·h. For the same molecule, the Cmax in [6] came to 740 nM. Besides, the bioavailability in data set [7] came out at 32%.
In turn, `C[C@@H](C1CC1)n1cc(Cl)nc(N(COP(=O)([O-])[O-])c2c(Cl)cc(OC(F)F)cc2Cl)c1=O.[Na+].[Na+]` showed an AUC(0-t) at 24 h in data set [5] of 5.99 µM·h. In data set [6], this molecule yielded a Cmax of 2150 nM. In data set [7], the bioavailability turned out to be 25%.
As to `C[C@@H](C1CC1)n1cc(Cl)nc(N(C(=O)OCCCOP(=O)([O-])[O-])c2c(Cl)cc(OC(F)F)cc2Cl)c1=O.[Na+].[Na+]`, the solubility thermodynamic in [1] stood at 4 µg/mL; in data set [2], 1500 µg/mL. The area under the curve AUC(0-t) at 24 h in [5] is 4.23 µM·h. The molecule also displayed a peak concentration (Cmax) in data set [6] of 295 nM. In data set [7], the bioavailability worked out at 18%. The Stability result in [12] and in data set [13] was “Stable” each time.

(Values after ChEMBL document CHEMBL3997831, “Synthesis and evaluation of prodrugs of corticotropin-releasing factor-1 (CRF1) receptor antagonist BMS-665053 leading to improved oral bioavailability” (Bioorg Med Chem Lett, 2017).)
